Patent US10130693B2, “Peptides, combination of peptides and scaffolds for use in immunotherapeutic treatment of various cancers” (Immatics Biotechnologies GmbH, priority 2015, dated 2018)

System: HLA-A*24
Experiment: MHC binding assay, UV-ligand exchange with beta2m ELISA (exchange yield), HLA-A*24
Parameters: species or system human
Details: binding to HLA-A*24, UV-ligand exchange
Description: Candidate peptides for T cell based therapies according to the present invention were further tested for their MHC binding capacity (affinity). The individual peptide-MHC complexes were produced by UV-ligand exchange, where a UV-sensitive peptide is cleaved upon UV-irradiation, and exchanged with the peptide of interest as analyzed. Only peptide candidates that can effectively bind and stabilize the peptide-receptive MHC molecules prevent dissociation of the MHC complexes. To determine the yield of the exchange reaction, an ELISA was performed based on the detection of the light chain (β2m) of stabilized MHC complexes. The assay was performed as generally described in Rodenko et al. (Rodenko et al., 2006).
96 well MAXISorp plates (NUNC) were coated over night with 2 ug/ml streptavidin in PBS at room temperature, washed 4× and blocked for 1 h at 37° C. in 2% BSA containing blocking buffer. […] Peptide-MHC monomers of the UV-exchange reaction were diluted 100 fold in blocking buffer. Samples were incubated for 1 h at 37° C., washed four times, incubated with 2 ug/ml HRP conjugated anti-β2m for 1h at 37° C., washed again and detected with TMB solution that is stopped with […]. Absorption was measured at 450 nm. Candidate peptides that show a high exchange yield (preferably higher than 50%, most preferred higher than 75%) are generally preferred for a generation and production of antibodies or fragments thereof, and/or T cell receptors or fragments thereof, as they show sufficient avidity to the MHC molecules and prevent dissociation of the MHC complexes.

Row | Substance | Peptide exchange (MHC class I binding score, peptide exchange yield)
1 | 138 (VYNAVSTSF; listed as Homo sapiens) [compound 138] | ++ (20%-49% = ++)
2 | 202 (RYVEGIVSL; listed as Homo sapiens) [compound 202] | +++ (50%-75% = +++)
3 | 249 (RYHPTTCTI; listed as Homo sapiens) [compound 249] | ++++ (>=75% = ++++)
4 | 169 (NYITGKGDVF; listed as Homo sapiens) [compound 169] | +++ (50%-75% = +++)
5 | 212 (SYAPPSEDLF; listed as Homo sapiens) [compound 212] | ++ (20%-49% = ++)
6 | 217 (IYISNSIYF; listed as Homo sapiens) [compound 217] | ++++ (>=75% = ++++)
7 | 241 (SYVKVLHHL; listed as Homo sapiens) [compound 241] | +++ (50%-75% = +++)
8 | 240 (YYFFVQEKI; listed as Homo sapiens) [compound 240] | +++ (50%-75% = +++)
9 | 263 (RYILENHDF; listed as Homo sapiens) [compound 263] | +++ (50%-75% = +++)
10 | 265 (SYLNEAFSF; listed as Homo sapiens) [compound 265] | ++++ (>=75% = ++++)
11 | 100 (VYIESRIGTSTSF; listed as Homo sapiens) [compound 100] | +++ (50%-75% = +++)
12 | 146 (NYYERIHAL; listed as Homo sapiens) [compound 146] | +++ (50%-75% = +++)
13 | 201 (GYNPNRVFF; listed as Homo sapiens) [compound 201] | +++ (50%-75% = +++)
14 | 252 (AFGQETNVPLNNF; listed as Homo sapiens) [compound 252] | ++++ (>=75% = ++++)
15 | 129 (KYIDYLMTW; listed as Homo sapiens) [compound 129] | ++++ (>=75% = ++++)
16 | 149 (SYGTVSQI; listed as Homo sapiens) [compound 149] | ++++ (>=75% = ++++)
17 | 250 (KYPDIASPTF; listed as Homo sapiens) [compound 250] | ++ (20%-49% = ++)
18 | 128 (VYPFDWQYI; listed as Homo sapiens) [compound 128] | ++++ (>=75% = ++++)

Row | Substance | Peptide exchange (MHC class I binding score, peptide exchange yield)
19 | 239 (VYAIFRILL; listed as Homo sapiens) [compound 239] | +++ (50%-75% = +++)
20 | 141 (SYNGHLTIWF; listed as Homo sapiens) [compound 141] | +++ (50%-75% = +++)
21 | 152 (KFFDDLGDELLF; listed as Homo sapiens) [compound 152] | ++ (20%-49% = ++)
22 | 195 (AYIKGGWIL; listed as Homo sapiens) [compound 195] | +++ (50%-75% = +++)
23 | 165 (EYFTPLLSGQF; listed as Homo sapiens) [compound 165] | +++ (50%-75% = +++)
24 | 242 (VYGEPRELL; listed as Homo sapiens) [compound 242] | +++ (50%-75% = +++)
25 | 258 (AYAQLGYLL; listed as Homo sapiens) [compound 258] | +++ (50%-75% = +++)
26 | 209 (AFIETPIPLF; listed as Homo sapiens) [compound 209] | ++++ (>=75% = ++++)
27 | 218 (LYSELNKWSF; listed as Homo sapiens) [compound 218] | +++ (50%-75% = +++)
28 | 214 (KYLMELTLI; listed as Homo sapiens) [compound 214] | +++ (50%-75% = +++)
29 | 244 (VHFEDTGKTLLF; listed as Homo sapiens) [compound 244] | +++ (50%-75% = +++)
30 | 136 (IYPEWPVVFF; listed as Homo sapiens) [compound 136] | +++ (50%-75% = +++)
31 | 125 (VFSRDFGLLVF; listed as Homo sapiens) [compound 125] | +++ (50%-75% = +++)
32 | 194 (VYQSLSNSL; listed as Homo sapiens) [compound 194] | +++ (50%-75% = +++)
33 | 229 (IYQFVADSF; listed as Homo sapiens) [compound 229] | +++ (50%-75% = +++)
34 | 257 (IFIDNSTQPLHF; listed as Homo sapiens) [compound 257] | +++ (50%-75% = +++)
35 | 234 (SYLPAIWLL; listed as Homo sapiens) [compound 234] | +++ (50%-75% = +++)

Continued, values first:

Row | Peptide exchange (MHC class I binding score, peptide exchange yield) | Substance
36 | +++ (50%-75% = +++) | 377 (QYTPHSHQF; listed as Homo sapiens) [compound 377]
37 | +++ (50%-75% = +++) | 352 (QYGGDLTNTF; listed as Homo sapiens) [compound 352]
38 | +++ (50%-75% = +++) | 373 (GYISNGELF; listed as Homo sapiens) [compound 373]
39 | +++ (50%-75% = +++) | 291 (YYLGSGRETF; listed as Homo sapiens) [compound 291]
40 | ++++ (>=75% = ++++) | 271 (RFLMKSYSF; listed as Homo sapiens) [compound 271]
41 | +++ (50%-75% = +++) | 369 (VYTHEVVTL; listed as Homo sapiens) [compound 369]
42 | +++ (50%-75% = +++) | 282 (NYLVDPVTI; listed as Homo sapiens) [compound 282]
43 | +++ (50%-75% = +++) | 299 (KYQYVLNEF; listed as Homo sapiens) [compound 299]
44 | ++++ (>=75% = ++++) | 286 (SYGTILSHI; listed as Homo sapiens) [compound 286]
45 | +++ (50%-75% = +++) | 386 (TFSDVEAHF; listed as Homo sapiens) [compound 386]
46 | +++ (50%-75% = +++) | 364 (KYLNENQLSQL; listed as Homo sapiens) [compound 364]
47 | ++ (20%-49% = ++) | 267 (SFLNIEKTEILF; listed as Homo sapiens) [compound 267]
48 | ++++ (>=75% = ++++) | 296 (SYQVIFQHF; listed as Homo sapiens) [compound 296]
49 | +++ (50%-75% = +++) | 300 (TYPSQLPSL; listed as Homo sapiens) [compound 300]
50 | ++++ (>=75% = ++++) | 305 (NYENKQYLF; listed as Homo sapiens) [compound 305]
51 | +++ (50%-75% = +++) | 308 (TFDGHGVFF; listed as Homo sapiens) [compound 308]
52 | +++ (50%-75% = +++) | 385 (QYIEELQKF; listed as Homo sapiens) [compound 385]
53 | +++ (50%-75% = +++) | 303 (LYSVIKEDF; listed as Homo sapiens) [compound 303]
54 | +++ (50%-75% = +++) | 270 (YYSQESKVLYL; listed as Homo sapiens) [compound 270]
55 | +++ (50%-75% = +++) | 283 (EYQEIFQQL; listed as Homo sapiens) [compound 283]
56 | ++ (20%-49% = ++) | 362 (VYNYAEQTL; listed as Homo sapiens) [compound 362]
57 | +++ (50%-75% = +++) | 307 (GYAFTLPLF; listed as Homo sapiens) [compound 307]
58 | +++ (50%-75% = +++) | 382 (AYLPPLQQVF; listed as Homo sapiens) [compound 382]
59 | ++ (20%-49% = ++) | 288 (VYPDTVALTF; listed as Homo sapiens) [compound 288]
60 | +++ (50%-75% = +++) | 266 (KYTDWTEFL; listed as Homo sapiens) [compound 266]
61 | +++ (50%-75% = +++) | 342 (NYAFLHRTL; listed as Homo sapiens) [compound 342]
62 | +++ (50%-75% = +++) | 284 (DYLKDPVTI; listed as Homo sapiens) [compound 284]
